Among the data in article PMC2680243 (Cancer research, 2008) are IC50 values, retold here.

In this assay the target is T1, Cdc25A (Homo sapiens, UniProt P30304).
T1 sequence (P30304 1-524): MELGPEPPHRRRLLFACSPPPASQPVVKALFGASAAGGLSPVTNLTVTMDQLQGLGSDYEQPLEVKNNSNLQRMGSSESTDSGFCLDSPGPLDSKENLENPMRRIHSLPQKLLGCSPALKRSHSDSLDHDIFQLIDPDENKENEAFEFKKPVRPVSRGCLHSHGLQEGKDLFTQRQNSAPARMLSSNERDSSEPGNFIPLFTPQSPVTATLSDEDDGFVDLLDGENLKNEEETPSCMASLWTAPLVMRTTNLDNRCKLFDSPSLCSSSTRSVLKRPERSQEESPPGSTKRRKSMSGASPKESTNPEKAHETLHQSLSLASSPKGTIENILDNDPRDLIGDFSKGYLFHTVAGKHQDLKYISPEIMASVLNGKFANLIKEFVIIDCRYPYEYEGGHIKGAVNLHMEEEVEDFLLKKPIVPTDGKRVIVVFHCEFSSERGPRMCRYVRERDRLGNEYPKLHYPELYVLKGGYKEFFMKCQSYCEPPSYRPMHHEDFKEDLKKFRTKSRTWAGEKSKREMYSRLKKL
The experiment in a line: OMFP phosphatase assay, […] min pretreatment. It counts as biochemical.

By IC50 is commonly meant the concentration that gives 50% inhibition. As for `CCOC(=O)[C@@H](N)CSN=O` [SNCEE, S-nitrosocysteine ethyl ester], the IC50 was determined as 22.5 ± 6.2 µM.
